Source: US7060671B1, “Peptides containing N-substituted D-amino acids for preventing β-strand association” (Senexis Limited, priority 1999, dated 2006)
Values joined by “and” are separate entries in the source; they are usually repeats but may differ in a detail not shown here. Equal values may be shown once. “Also recorded” adds a separate entry of the source. Square brackets hold non-standard residues; d marks the D form. Peptide text beside a SMILES is read from it. dNMeL = CN[C@H](CC(C)C)C(=O)O

What was measured:
[1] = biological target: T1, synthetic peptide fragment corresponding to residues 11 to 25 of the Alzheimer's Aβ peptide (Homo sapiens, UniProt P05067); experiment: thioflavin T fluorescence assay of Aβ peptide fragment aggregation into amyloid fibrils; assay type: biochemical
T1 construct: residues 11 to 25 of the Alzheimer's Aβ peptide
Description: Peptide X (SEQ ID NO: 2) was dissolved in water to a concentration of 10 mM (about 10 mg/ml). […]

[2] = biological target: T2, Alzheimer's Aβ peptide fragment (Homo sapiens, UniProt P05067); experiment: electron microscopy of Aβ peptide fragment aggregation; assay type: biochemical; settings: 500 mM (so in the source) Peptide X, FIGS. 6 and 7
T2 construct: residues 11 to 25 of the Alzheimer's Aβ peptide
Description: Peptide X (SEQ ID NO: 2) was dissolved in water to a concentration of 10 mM (about 10 mg/ml). Alzheimer's Aβ peptide fragment, at a concentration of 50/M (about 0.1 mg/ml) in 50 mM sodium acetate buffer (pH 5.0), was incubated at 25° C. in the absence or presence of Peptide X (SEQ ID NO: 2) at concentrations ranging from 100 μM to 1 mM; the aggregation of the Aβ peptide fragment into insoluble β-fibres in the solutions was determined quantitatively after 20 minutes by measuring the fluorescence of 1%M added thioflavin T at 482 nm using an excitation wavelength of 440 nm. […] aliquots of these solutions were then analysed by electron microscopy to confirm that Peptide X (SEQ ID NO: 2) had inhibited and/or reversed the aggregation of the Alzheimer's Aβ peptide fragment into insoluble β-fibres.

[3] = solubility in aqueous solutions; assay type: physicochemical; settings: over a wide range of pH values
Text: The two positively charged arginine side chains assist the peptide to penetrate cell membranes and the blood-brain barrier by making electrostatic interactions with the negatively charged phosphate head groups of their constituent phospholipid molecules, resulting in the formation of inverted micelles which carry the peptide molecules across these membranes.

inhibition at 200 µM ([1]; 200 μM Peptide X, Aβ fragment in 50 mM sodium acetate pH 5.0, 25° C., 20 minutes, FIG. 5): > 60%
reduction in Alzheimer's Aβ peptide aggregation ([1]; Peptide X concentration of 100 mM (so in the source), FIG. 5): 50%
solubility [3]: ≥ 10000 µM and ≥ 10000 µg/mL
Structure (SMILES): CC(=O)N[C@H](CC(C)C)C(=O)N(C)[C@H](CC(C)C)C(=O)N[C@H](CC(C)C)C(=O)N(C)[C@H](CC(C)C)C(=O)N[C@H](CCCNC(=N)N)C(=O)N[C@H](CCCNC(=N)N)C(N)=O [Peptide X, Nα-acetyl-(D-leucine)-(Nα-methyl-D-leucine)-(D-leucine)-(Nα-methyl-D-leucine)-(D-arginine)-(D-arginine)-NH2] (Ac-[dL][dNMeL][dL][dNMeL][dR][dR]-NH2)
disaggregation of preformed amyloid fibrils ([1]; Peptide X added to the Aβ peptide fragment after incubation): able to disaggregate preformed amyloid fibrils
inhibition of aggregation of Aβ peptide fragment into amyloid fibrils by electron microscopy [2]: almost completely inhibited aggregation; also recorded: substantial elimination of aggregation
